Experimental data from ChEMBL document CHEMBL4831517, “Optimization of a Series of RIPK2 PROTACs” (J Med Chem, 2021).
Values after ≈ are worked out from the molar mass of the structure shown. Active and inactive are the calls of the source. No cut-off for these calls is given here.

Columns and labels:
[1] = target: E3 ubiquitin-protein ligase XIAP/Receptor-interacting serine/threonine-protein kinase 2 (Homo sapiens, UniProt O43353+P98170); experiment: Protac activity at IAP/RIPK2 in human whole blood assessed as inhibition of MDP-induced TNFalpha production by ELISA; format: tissue-based
Sequence of E3 ubiquitin-protein ligase XIAP/Receptor-interacting serine/threonine-protein kinase 2 (Homo sapiens, UniProt O43353+P98170) (P98170 whole entry): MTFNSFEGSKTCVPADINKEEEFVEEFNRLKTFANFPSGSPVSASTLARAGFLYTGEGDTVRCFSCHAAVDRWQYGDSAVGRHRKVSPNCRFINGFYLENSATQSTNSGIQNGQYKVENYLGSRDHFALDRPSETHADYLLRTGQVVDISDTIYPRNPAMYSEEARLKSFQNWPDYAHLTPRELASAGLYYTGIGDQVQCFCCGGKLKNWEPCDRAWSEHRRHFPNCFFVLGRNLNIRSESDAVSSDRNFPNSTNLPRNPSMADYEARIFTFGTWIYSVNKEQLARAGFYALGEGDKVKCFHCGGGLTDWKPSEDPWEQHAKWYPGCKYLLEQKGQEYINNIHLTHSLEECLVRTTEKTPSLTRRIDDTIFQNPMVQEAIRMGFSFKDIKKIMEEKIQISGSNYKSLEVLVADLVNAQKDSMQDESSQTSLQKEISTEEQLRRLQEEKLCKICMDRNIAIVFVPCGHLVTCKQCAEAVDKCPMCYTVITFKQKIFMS
Sequence of E3 ubiquitin-protein ligase XIAP/Receptor-interacting serine/threonine-protein kinase 2 (Homo sapiens, UniProt O43353+P98170) (O43353 whole entry): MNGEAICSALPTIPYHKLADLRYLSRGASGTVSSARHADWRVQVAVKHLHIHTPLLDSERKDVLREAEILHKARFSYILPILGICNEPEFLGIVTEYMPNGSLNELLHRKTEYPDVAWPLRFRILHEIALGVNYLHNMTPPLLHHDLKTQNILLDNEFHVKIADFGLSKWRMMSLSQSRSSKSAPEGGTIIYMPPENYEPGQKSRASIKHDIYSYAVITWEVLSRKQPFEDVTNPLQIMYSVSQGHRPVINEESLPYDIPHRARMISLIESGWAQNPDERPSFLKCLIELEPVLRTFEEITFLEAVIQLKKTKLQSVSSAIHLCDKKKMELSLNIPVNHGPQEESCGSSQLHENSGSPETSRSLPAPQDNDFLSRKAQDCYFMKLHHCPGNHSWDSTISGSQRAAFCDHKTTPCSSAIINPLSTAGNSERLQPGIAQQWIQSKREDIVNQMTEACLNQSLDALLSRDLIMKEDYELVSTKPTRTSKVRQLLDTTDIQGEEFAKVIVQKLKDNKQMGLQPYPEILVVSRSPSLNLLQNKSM

[2] = target: Receptor-interacting serine/threonine-protein kinase 2 (Homo sapiens, UniProt O43353); experiment: Inhibition of full length His-tagged RIPK2 (unknown origin) expressed in baculovirus expression system using fluorescent labelled ATP competitive ligand by fluorescent polarization based binding assay
Sequence of Receptor-interacting serine/threonine-protein kinase 2 (O43353 whole entry): as above

[3] = Solubility of the compound by chemiluminescent nitrogen detection (CLND) method; format: physicochemical
[4] = Metabolic stability in human liver microsomes assessed as intrinsic clearance using pH 7.4 phosphate buffer incubated for 45 mins by LC-MS/MS analysis; format: ADME, Microsome; conditions: pH 7.4, 0.75 h
[5] = Metabolic stability in rat liver microsomes assessed as intrinsic clearance using pH 7.4 phosphate buffer incubated for 45 mins by LC-MS/MS analysis; format: ADME, Microsome; conditions: pH 7.4, 0.75 h
[6] = target: T1, Protein cereblon/Receptor-interacting serine/threonine-protein kinase 2 (Homo sapiens, UniProt O43353+Q96SW2); experiment: Protac activity at CRBN/RIPK2 in human THP-1 cells assessed as induction of RIPK2 degradation by measuring decrease in protein level incubated for 18 hrs by capillary-based immunoassay; format: cell-based
T1 sequence (O43353 whole entry): as above
T1 sequence (Q96SW2 whole entry): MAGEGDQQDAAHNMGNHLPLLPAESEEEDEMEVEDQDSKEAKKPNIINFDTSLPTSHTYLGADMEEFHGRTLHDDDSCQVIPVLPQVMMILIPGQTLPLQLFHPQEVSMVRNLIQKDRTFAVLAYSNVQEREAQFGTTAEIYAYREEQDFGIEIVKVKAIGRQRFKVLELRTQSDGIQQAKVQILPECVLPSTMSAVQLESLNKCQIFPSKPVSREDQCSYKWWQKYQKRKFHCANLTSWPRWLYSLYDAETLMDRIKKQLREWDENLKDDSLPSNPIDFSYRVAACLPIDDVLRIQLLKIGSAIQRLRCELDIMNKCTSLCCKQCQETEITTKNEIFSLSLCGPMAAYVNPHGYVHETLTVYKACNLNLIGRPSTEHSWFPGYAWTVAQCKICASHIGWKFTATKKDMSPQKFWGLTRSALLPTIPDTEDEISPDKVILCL

[7] = target: T1, Protein cereblon/Receptor-interacting serine/threonine-protein kinase 2; experiment: Protac activity at CRBN/RIPK2 in human whole blood assessed as inhibition of MDP-induced TNFalpha production by ELISA; format: tissue-based
[8] = Lipophilicity, logD of compound at pH 7.4 by Chromatography; format: physicochemical; conditions: buffer
[9] = target: E3 ubiquitin-protein ligase XIAP/Receptor-interacting serine/threonine-protein kinase 2 (Homo sapiens, UniProt P98170+O43353); experiment: Protac activity at IAP/RIPK2 in human THP-1 cells assessed as induction of RIPK2 degradation by measuring decrease in protein level incubated for 18 hrs by capillary-based immunoassay; format: cell-based
Sequence of E3 ubiquitin-protein ligase XIAP/Receptor-interacting serine/threonine-protein kinase 2 (Homo sapiens, UniProt P98170+O43353) (P98170 whole entry): as the sequence (P98170 whole entry) above
Sequence of E3 ubiquitin-protein ligase XIAP/Receptor-interacting serine/threonine-protein kinase 2 (Homo sapiens, UniProt P98170+O43353) (O43353 whole entry): as the sequence (O43353 whole entry) above

[10] = target: T2, von Hippel-Lindau disease tumor suppressor/Receptor-interacting serine/threonine-protein kinase 2 (Homo sapiens, UniProt O43353+P40337); experiment: Protac activity at VHL/RIPK2 in human THP-1 cells assessed as induction of RIPK2 degradation by measuring decrease in protein level incubated for 16 hrs by Western blot analysis; format: cell-based
T2 sequence (O43353 whole entry): as above
T2 sequence (P40337 whole entry): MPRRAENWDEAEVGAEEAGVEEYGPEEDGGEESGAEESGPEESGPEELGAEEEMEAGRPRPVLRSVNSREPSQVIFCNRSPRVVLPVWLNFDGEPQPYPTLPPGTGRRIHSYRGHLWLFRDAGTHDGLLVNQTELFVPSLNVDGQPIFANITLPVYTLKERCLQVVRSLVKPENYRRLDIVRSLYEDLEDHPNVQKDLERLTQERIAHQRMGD

[11] = target: T2, von Hippel-Lindau disease tumor suppressor/Receptor-interacting serine/threonine-protein kinase 2; experiment: Protac activity at VHL/RIPK2 in human whole blood assessed as inhibition of MDP-induced TNFalpha production by ELISA; format: tissue-based
[12] = (§1) Ex vivo protac activity at IAP/RIPK2 in rat assessed as RIPK2 degradation at 0.5 mg/kg, sc measured for 8 to 48 hrs; format: functional; conditions: time 8-48 hrs
[13] = (§2) Ex vivo protac activity at IAP/RIPK2 in rat assessed as inhibition of MDP-induced TNFalpha release at 0.5 mg/kg, sc measured for 8 to 48 hrs; format: functional; parameters: scale not given: the % may be the effect or the level left; conditions: time 8-48 hrs
[14] = Binding affinity to human His-thr XIAP BIR2 (124 to 240) domain expressed in Escherichia coli measured after 105 mins in dark by time-resolved fluorescence laser-equipped multimode plate reader
[15] = target: E3 ubiquitin-protein ligase XIAP (Homo sapiens, UniProt P98170); experiment: Binding affinity to human His-thr XIAP BIR3 (241 to 356) domain expressed in Escherichia coli measured after 105 mins in dark by time-resolved fluorescence laser-equipped multimode plate reader
Sequence of E3 ubiquitin-protein ligase XIAP (P98170 whole entry): as the sequence (P98170 whole entry) above

[16] = tested on: Rattus norvegicus; experiment: as §1; format: functional; conditions: time 8-48 hrs
[17] = tested on: Rattus norvegicus; experiment: as §2; format: functional; conditions: time 8-48 hrs

SMILES	IC50 [1] [µM]	IC50 [2] [µM]	also measured
CN[C@H](C)C(=O)N[C@@H](C(=O)N1C[C@@H](NC(=O)c2cnc(N3CCN(CCCOc4cc5ncnc(Nc6n[nH]c(C)c6C)c5cc4S(=O)(=O)C(C)(C)C)CC3)cn2)C[C@H]1c1nc(C(=O)c2ccc(F)cc2)cs1)C(C)(C)C	0.00251	0.000158	–
CN[C@@H](C)C(=O)N[C@H](C(=O)N1CCC[C@H]1c1nc(C(=O)c2ccc(F)cc2)cs1)C1CCN(C(=O)c2cnc(N3CCN(CCOc4cc5ncnc(Nc6n[nH]c(C)c6C)c5cc4S(=O)(=O)C(C)(C)C)CC3)cn2)CC1	0.0158	0.158	solubility kinetic [3]: 271 µM (≈ 296 µg/mL); CLH [4]: 0.57 mL/min/g; CLH [5]: < 0.46 mL/min/g
CN[C@@H](C)C(=O)N[C@H](C(=O)N1Cc2cc(OCCOCCOCCOCCOc3cc4ncnc(Nc5n[nH]c(C)c5C)c4cc3S(=O)(=O)C(C)(C)C)ccc2CC1C(=O)N[C@@H]1CCCc2ccccc21)C(C)(C)C (single isomer, unassigned)	0.0316	0.398	–
CN[C@@H](C)C(=O)N[C@H](C(=O)N1CCC[C@H]1c1nc(C(=O)c2ccc(F)cc2)cs1)C1CCN(C(=O)c2cnc(N3CCC(CCCOc4cc5ncnc(Nc6n[nH]c(C)c6C)c5cc4S(=O)(=O)C(C)(C)C)CC3)nc2)CC1	0.00316	0.0316	–
CN[C@@H](C)C(=O)N[C@H](C(=O)N1CCC[C@H]1c1nc(C(=O)c2ccc(F)cc2)cs1)C1CCN(C(=O)c2ccc(N3CCN(CCCOc4cc5ncnc(Nc6n[nH]c(C)c6C)c5cc4S(=O)(=O)C(C)(C)C)CC3)cc2)CC1	0.0126	0.0316	–
CC(C)(C)S(=O)(=O)c1cc2c(Nc3ccc4scnc4c3)ccnc2cc1OCCOCCOCCOCCOCC(=O)Nc1cccc2c1CN(C1CCC(=O)NC1=O)C2=O (centres undefined)	–	–	DC50 [6]: 0.0062 µM; IC50 [7]: 0.0631 µM
CN[C@@H](C)C(=O)N[C@H](C(=O)N1CCC[C@H]1c1nc(C(=O)c2ccc(F)cc2)cs1)C1CCN(C(=O)c2cnc(N3CCC(COc4cc5ncnc(Nc6n[nH]c(C)c6C)c5cc4S(=O)(=O)C(C)(C)C)CC3)nc2)CC1	0.0251	0.01	–
Cc1[nH]nc(Nc2ncnc3cc(OCCCN4CCN(C(=O)c5cnc(N6CCN(C[C@H]7CN[C@H](C)CN7CC(=O)N7CC(C)(C)c8ncc(Cc9ccc(F)cc9)cc87)[C@H](C)C6)nc5)CC4)c(S(=O)(=O)C(C)(C)C)cc23)c1C	0.00251	0.0251	–
CN[C@@H](C)C(=O)N[C@H]1CN(C(=O)c2cnc(N3CCN(CCCOc4cc5ncnc(Nc6n[nH]c(C)c6C)c5cc4S(=O)(=O)C(C)(C)C)CC3)cn2)CC[C@H]2CC[C@@H](C(=O)NC3CCCc4ccccc43)N2C1=O (some centres undefined)	–	0.00631	–
CN[C@@H](C)C(=O)N[C@H](C(=O)N1CCC[C@H]1c1nc(C(=O)c2ccc(F)cc2)cs1)C1CCN(C(=O)COCCOCCOCCOCCOc2cc3ncnc(Nc4n[nH]c(C)c4C)c3cc2S(=O)(=O)C(C)(C)C)CC1	0.0631	0.158	–
CN[C@@H](C)C(=O)N[C@H](C(=O)N1CCC[C@H]1c1nc(C(=O)c2ccc(F)cc2)cs1)C1CCN(C(=O)COCCOCCOCCOCCOc2cc3nccc(Nc4ccc5scnc5c4)c3cc2S(=O)(=O)C(C)(C)C)CC1	0.01	0.00501	solubility kinetic [3]: 308 µM (≈ 348 µg/mL); chromatographic logD [8]: 4.5
CN[C@@H](C)C(=O)N[C@H](C(=O)N1Cc2cc(OCCOCCOCCOCCOc3cc4nccc(Nc5ccc6scnc6c5)c4cc3S(=O)(=O)C(C)(C)C)ccc2C[C@@H]1C(=O)N[C@@H]1CCCc2ccccc21)C(C)(C)C	0.01	0.01	DC50 [9]: 0.0002 µM; solubility kinetic [3]: 21 µM (≈ 22.9 µg/mL); chromatographic logD [8]: 6.1
Cc1ncsc1-c1ccc(CNC(=O)[C@@H]2C[C@@H](O)CN2C(=O)[C@@H](NC(=O)COCCOCCOCCOCCOc2cc3nccc(Nc4ccc5scnc5c4)c3cc2S(=O)(=O)C(C)(C)C)C(C)(C)C)cc1	–	–	DC50 [10]: 0.0015 µM; IC50 [11]: 0.1 µM; IC50 [7]: 0.1 µM
CN[C@@H](C)C(=O)N[C@H](C(=O)N1CCC[C@H]1c1nc(C(=O)c2ccc(F)cc2)cs1)C1CCN(C(=O)c2cnc(N3CCN(CCCOc4cc5ncnc(Nc6n[nH]c(C)c6C)c5cc4S(=O)(=O)C(C)(C)C)CC3)cn2)CC1	0.00158	0.0126	Activity [12]: >70%; Activity [13]: 100%; pIC50 [14]: 5.8; IC50 [15]: 0.0398 µM
CN[C@@H](C)C(=O)N[C@H](C(=O)N1C[C@@H](NC(=O)c2cnc(N3CCN(CCCOc4cc5ncnc(Nc6n[nH]c(C)c6C)c5cc4S(=O)(=O)C(C)(C)C)CC3)cn2)CC1C(=O)NC1CCCc2ccccc21)C(C)(C)C (some centres undefined)	–	0.0126	–
CN[C@@H](C)C(=O)N[C@H](C(=O)N1CCC[C@H]1c1nc(C(=O)c2ccc(F)cc2)cs1)C1CCN(C(=O)c2ccc(N3CCN(CCCOc4cc5ncnc(Nc6n[nH]c(C)c6C)c5cc4S(=O)(=O)C(C)(C)C)CC3)nc2)CC1	0.00794	0.01	–
CN[C@@H](C)C(=O)N[C@H](C(=O)N1CCC[C@H]1c1nc(C(=O)c2ccc(F)cc2)cs1)C1CCN(C(=O)c2cnc(N3CCN(CCCOc4cc5ncnc(Nc6n[nH]c(C)c6C)c5cc4S(=O)(=O)C(C)(C)C)CC3)nc2)CC1	0.002	0.00794	–
CN[C@@H](C)C(=O)N[C@H](C(=O)N1CCC[C@H]1c1nc(C(=O)c2ccc(F)cc2)cs1)C1CCN(C(=O)c2ccc(N3CCN(CCOc4cc5ncnc(Nc6n[nH]c(C)c6C)c5cc4S(=O)(=O)C(C)(C)C)CC3)nc2)CC1	0.01	0.126	solubility kinetic [3]: > 304 µM; CLH [4]: 1.17 mL/min/g; CLH [5]: 0.55 mL/min/g
CN[C@@H](C)C(=O)N[C@H]1CN(C(=O)c2cnc(N3CCN(CCCOc4cc5ncnc(Nc6n[nH]c(C)c6C)c5cc4S(=O)(=O)C(C)(C)C)CC3)cn2)CC[C@H]2CC[C@@H](C(=O)N[C@@H]3CCCc4ccccc43)N2C1=O	0.00316	0.0001	–
CC[C@@H](NC(=O)[C@@H]1C[C@H](NC(=O)COCCOCCOCCOCCOc2cc3nccc(Nc4ccc5scnc5c4)c3cc2S(=O)(=O)C(C)(C)C)CN1C(=O)[C@@H](NC(=O)[C@H](C)NC)C(C)(C)C)c1ccccc1	0.0251	0.002	solubility kinetic [3]: > 235 µM; chromatographic logD [8]: 5.6
CN[C@H](C)C(=O)N[C@H](C(=O)N1C[C@@H](NC(=O)c2cnc(N3CCN(CCCOc4cc5ncnc(Nc6n[nH]c(C)c6C)c5cc4S(=O)(=O)C(C)(C)C)CC3)cn2)C[C@H]1C(=O)Nc1c(F)cccc1F)C(C)(C)C	–	–	Activity [16]: Active; Activity [17]: Active; IC50 [15]: 6.31 µM
CN[C@@H](C)C(=O)N[C@H](C(=O)N1CCC[C@H]1c1nc(C(=O)c2ccc(F)cc2)cs1)C1CCN(C(=O)c2cnc(N3CCN(CCOc4cc5ncnc(Nc6n[nH]c(C)c6C)c5cc4S(=O)(=O)C(C)(C)C)CC3)nc2)CC1	0.02	–	solubility kinetic [3]: > 311 µM; CLH [4]: 0.74 mL/min/g; CLH [5]: 0.48 mL/min/g
CN[C@@H](C)C(=O)N[C@H](C(=O)N1CCC[C@H]1c1nc(C(=O)c2ccc(F)cc2)cs1)C1CCN(C(=O)c2cnc(N3CCC(CCOc4cc5ncnc(Nc6n[nH]c(C)c6C)c5cc4S(=O)(=O)C(C)(C)C)CC3)nc2)CC1	0.0158	0.0398	–
Cc1[nH]nc(Nc2ncnc3cc(OCCCN4CCN(C(=O)c5cnc(N6CCN(C[C@H]7CN[C@H](C)CN7CC(=O)N7CC(C)(C)c8c7cc(Cc7ccc(F)cc7)c(=O)n8C)[C@H](C)C6)nc5)CC4)c(S(=O)(=O)C(C)(C)C)cc23)c1C	0.00631	0.00794	pIC50 [14]: < 4; IC50 [15]: 0.0126 µM
